# Where two headings read alike, the source gives them in different places.
# How the values were obtained:
# hematopoietic stem cells = test: Frequency of hematopoietic stem cells in bone marrow, multicolor flow cytometry; format: in vivo, C57BL/6 mice; conditions: 3 mg/kg/d IP for 30 days; versus vehicle-injected controls; FIG. 15
# Description: Ten week-old male C57BL/6 mice were treated chronically with compound 13 (3 mg/kg/d IP) for 30 days, and bone marrow harvested and subjected to multicolor flow cytometry to quantify hematopoietic stem cell lineages based on cell surface marker expression.
# [1] = Plasma pharmacokinetics after single bolus intraperitoneal administration; format: in vivo, C57B16 mice; conditions: IP 3 mg/kg
# Description: The pharmacokinetics of 13.HCl was evaluated after a single bolus intraperitoneal administration (3 mg/kg) in male and female C57B16 mice on a commercial rodent diet and water ad libitum prior to the study. Compound plasma levels were determined by LC-MS/MS and the pharmacokinetic parameters were determined using WinNonlin software (Pharsight Co., Mountain View, Calif.). Dosing solutions (0.6 mg/mL) were prepared in a vehicle comprising 2% hydropropyl-β-cyclodextrin in phosphate-buffered saline (PBS). Each time point (pre-dose, 5, 10, 15, 30, 60, 120, 240, 480, 1440 min post-dose) was dosed as N=3/sex. Each blood sample was collected via cardiac puncture after euthanasia with CO2 and placed in chilled tubes containing sodium heparin. Samples were centrifuged at 4° C. at 13,000 rpm for 5 min followed by extracted with acetonitrile and then analyzed.
# The pharmacokinetics of 44.HCl and 37.HCl were evaluated after a single bolus intraperitoneal administration (3 mg/kg) in male C57B16 mice on a commercial rodent diet and water ad libitum prior to the study. Compound plasma levels were determined by LC-MS/MS and the pharmacokinetic parameters were determined using WinNonlin software (Pharsight Co., Mountain View, Calif.). Dosing solutions (0.6 mg/mL) were prepared in a vehicle comprising 2% hydropropyl-β-cyclodextrin in phosphate-buffered saline (PBS). Each time point (pre-dose, 5, 10, 15, 30, 60, 120, 240, 480, 1440 min post-dose) was dosed as
# N=3/sex. Each blood sample was collected via cardiac puncture after euthanasia with CO2 and placed in chilled tubes containing sodium heparin. Samples were centrifuged at 4° C. at 13,000 rpm for 5 min followed by extracted with acetonitrile and then analyzed.
# [2] = tested on: turpentine-challenged C57BL/6 mice; conditions: 3 mg/kg ip every 12 h, weekly turpentine for 3 weeks
# Description: To model the anemia of inflammation, C57BL/6 mice were studied in which chronic inflammation was induced by weekly subcutaneous injections of turpentine.
# Mice received a subcutaneous injection of 100 μL turpentine weekly for 3 weeks. Compound 13 or vehicle (3 mg/kg) was administered ip beginning with the first turpentine injection and every 12 h thereafter. Vehicle treated mice without turpentine injection were studied as controls. One week after the final turpentine dose, blood was drawn for Hb levels, mean corpuscular volume (MCV), and absolute neutrophil counts.
# [3] = tested on: turpentine-challenged C57BL/6 mice; test: Turpentine-induced hypoferrinemia, 24 h after one turpentine injection; format: in vivo
# Description: Mice received a subcutaneous injection of turpentine, and 24 h later, serum was obtained for measurement of iron concentrations. Compound 13 (3 mg/kg) or vehicle was administered ip concurrently with turpentine and 12 hours later.
# PDGFR-mediated signaling = test: PDGF-induced AKT phosphorylation, cellular ELISA in PaSMCs; format: cell-based, murine
# Description: To test the relative effects of dorsomorphin and structurally-related compounds upon PDGFR-mediated signaling, PDGF-induced AKT phosphorylation was measured by cellular ELISA via the detection of phospho-AKT in PaSMCs treated with compounds for 10 min. followed by PDGF for 30 min.
# [4] = tested on: IL6-induced hepcidin expression in HepG2 cells; test: IL6-induced hepcidin expression in HepG2 hepatoma cells; format: cell-based, human; conditions: pretreatment 5-625 nM for 30 min, IL6 50 ng/mL 1.5 h; FIG. 7
# Description: HepG2 cells pretreated with compound 13 (5-625 nM) or vehicle for 30 min. were incubated with IL6 (50 ng/mL) for 1.5 h. Cells were harvested, and hepcidin mRNA and 18S rRNA levels were measured by quantitative RT-PCR. Changes in gene expression were normalized to 18S ribosomal RNA levels using the relative cycle threshold method.
# hepcidin [5] = test: Turpentine-induced hepatic hepcidin expression time course; format: in vivo, C57BL/6 mice; conditions: 3 mg/kg IP every 12 h; compared to vehicle; FIG. 13
# [6] = tested on: constitutively-active mutant form of ALK2
# hepcidin [7] = test: Pseudomonas aeruginosa-induced hepcidin expression in zebrafish embryos; format: in vivo; conditions: 6 μM; 5 h after PsA injection; RT-qPCR; FIG. 6
# Source text: The following describes the development an in vivo model of inflammation-induced hepcidin expression that is amenable to facile genetic and pharmacological manipulation. The zebrafish is an attractive organism because it enables rapid knockdown of gene function via morpholino oligonucleotides and because it is highly amenable to pharmacological manipulation. Live Pseudomonas aeruginosa (PsA) were microinjected into the yolk of three-day-old zebrafish to induce a rapid and robust inflammatory response. It was determined that injection of bacteria induces robust expression of inflammatory markers. Embryos were injected with 5000 live PsA bacteria or phosphate PBS at 48 hpf and harvested 5 h later. TNFα, serum amyloid A (SAA), IL-1β, and IL-11α mRNA levels were measured by RT-qPCR (FIG. 5; *P<0.001 vs PBS, #P<0.002 vs. PBS). […] Next, it was examined whether the inflammatory response evoked by PsA in zebrafish is accompanied by induction of hepcidin.
# [8] = tested on: BMP-induced phosphorylation of SMAD1/5/8; test: BMP4-induced phosphorylation of SMAD1/5/8, cytoblot (cellular ELISA); format: cell-based, murine; conditions: Mus musculus; FIG. 1; approximate; read-out: functional IC50, BMP4-induced SMAD1/5/8 phosphorylation
# Description: Murine pulmonary artery smooth muscle cells were isolated, explanted and cultured as previously described (see […] et al. Am. J. Physiol. Lung Cell Mol. Physiol. 280:[…], 2001) and then grown to confluence in 96 well tissue culture plates. Cells were incubated in serum-free medium for 18 h, and then incubated with recombinant BMP2, BMP4, BMP6, BMP9, GDF5, TGF-β, or Activin A ligands (R&D Systems, Minneapolis, Minn.) at varying concentrations in duplicate for 20 minutes. […] Specificity for BMP-mediated signaling was determined separately using a modification of the cellular ELISA technique assaying for the activation of SMAD2 or SMAD3 via TGF-β, or Activin A. A corresponding IC50 was calculated for the effects of these compounds upon those signaling pathways.
structure (smiles),measurement,setting,value
"c1ccc2c(-c3cnn4cc(-c5ccc(N6CCNCC6)cc5)cnc34)ccnc2c1 [Compound 13, 4-[6-(4-piperazin-1-ylphenyl)pyrazolo[1,5-a]pyrimidin-3-yl]quinoline]",frequency of hematopoietic stem cells in the marrow,hematopoietic stem cells,No significant difference
same,Tmax,"[1]; C57B16, mouse, female mice, read-out: tmax",< 5 min
same,Tmax,"[1]; C57B16, mouse, male mice, read-out: tmax",< 5 min
same,AUC∞,[1]; female mice,1030 ng·h/mL
same,Cmax,[1]; female mice,1290 nM
same,Tmax,[1]; female mice,< 5 min
same,t1/2,[1]; female mice,1.6 h
same,AUC∞,[1]; male mice,994 ng·h/mL
same,Cmax,[1]; male mice,1540 nM
same,Tmax,[1]; male mice,< 5 min
same,t1/2,[1]; male mice,1.6 h
same,hemoglobin (Hb) levels,[2]; FIG. 10,prevented the decline in Hb levels and MCV
same,mean corpuscular volume (MCV),[2]; FIG. 11,prevented the decline in Hb levels and MCV
same,absolute neutrophil counts,[2]; FIG. 12,did not affect the increase in absolute neutrophil counts
same,turpentine-induced reduction in serum iron levels,"[3]; 3 mg/kg ip with turpentine and 12 hours later, FIG. 8",prevented turpentine-induced reduction in serum iron levels
same,hepatic hepcidin mRNA levels after turpentine,"[3]; two doses 3 mg/kg IP every 12 hours, FIG. 9",prevented elevation of hepatic hepcidin mRNA levels
same,selectivity for BMP signaling versus PDGF signaling,PDGFR-mediated signaling,improves upon the selectivity
same,IC50,"PDGFR-mediated signaling; Mus musculus, PASMC, compounds 10 min, then PDGF 30 min, FIG. 2, read-out: functional IC50, PDGF-induced AKT phosphorylation",~2000 nM
same,IL6-mediated increase in hepcidin mRNA levels,[4],abrogated the IL6-mediated increase in hepcidin mRNA levels in a dose-dependent fashion
same,hepatic hepcidin elevation after turpentine,hepcidin [5],effectively suppressed hepcidin elevation at 24-96 hours
same,ectopic calcification and disability,"[6]; FOP mutant mice, 3 mg/kg ip twice daily, FIG. 14",prevented the ectopic calcification and disability
same,skeletal development,"[6]; wild type mice, 3 mg/kg BID",exhibited normal skeletal development
same,PsA-induced induction of hepcidin mRNA,hepcidin [7],almost completely blocked
same,IC50,[8],5 to 10 nM

# — patent US9045484B2, “Inhibitors of the BMP signaling pathway” (The Brigham and Women's Hospital, Inc., priority 2008, dated 2015)
